Patent US9580416B2, “Inhibitors of Bruton's tyrosine kinase” (PHARMACYCLICS LLC, priority 2014, dated 2017)

Experiments:
Type in all cases: biochemical
JAK3 = molecular target: T1, JAK3 (Homo sapiens, UniProt P52333); test: Inhibition of a panel of kinases, in vitro HotSpot kinase assay: JAK3
T1 sequence (P52333 1-1124): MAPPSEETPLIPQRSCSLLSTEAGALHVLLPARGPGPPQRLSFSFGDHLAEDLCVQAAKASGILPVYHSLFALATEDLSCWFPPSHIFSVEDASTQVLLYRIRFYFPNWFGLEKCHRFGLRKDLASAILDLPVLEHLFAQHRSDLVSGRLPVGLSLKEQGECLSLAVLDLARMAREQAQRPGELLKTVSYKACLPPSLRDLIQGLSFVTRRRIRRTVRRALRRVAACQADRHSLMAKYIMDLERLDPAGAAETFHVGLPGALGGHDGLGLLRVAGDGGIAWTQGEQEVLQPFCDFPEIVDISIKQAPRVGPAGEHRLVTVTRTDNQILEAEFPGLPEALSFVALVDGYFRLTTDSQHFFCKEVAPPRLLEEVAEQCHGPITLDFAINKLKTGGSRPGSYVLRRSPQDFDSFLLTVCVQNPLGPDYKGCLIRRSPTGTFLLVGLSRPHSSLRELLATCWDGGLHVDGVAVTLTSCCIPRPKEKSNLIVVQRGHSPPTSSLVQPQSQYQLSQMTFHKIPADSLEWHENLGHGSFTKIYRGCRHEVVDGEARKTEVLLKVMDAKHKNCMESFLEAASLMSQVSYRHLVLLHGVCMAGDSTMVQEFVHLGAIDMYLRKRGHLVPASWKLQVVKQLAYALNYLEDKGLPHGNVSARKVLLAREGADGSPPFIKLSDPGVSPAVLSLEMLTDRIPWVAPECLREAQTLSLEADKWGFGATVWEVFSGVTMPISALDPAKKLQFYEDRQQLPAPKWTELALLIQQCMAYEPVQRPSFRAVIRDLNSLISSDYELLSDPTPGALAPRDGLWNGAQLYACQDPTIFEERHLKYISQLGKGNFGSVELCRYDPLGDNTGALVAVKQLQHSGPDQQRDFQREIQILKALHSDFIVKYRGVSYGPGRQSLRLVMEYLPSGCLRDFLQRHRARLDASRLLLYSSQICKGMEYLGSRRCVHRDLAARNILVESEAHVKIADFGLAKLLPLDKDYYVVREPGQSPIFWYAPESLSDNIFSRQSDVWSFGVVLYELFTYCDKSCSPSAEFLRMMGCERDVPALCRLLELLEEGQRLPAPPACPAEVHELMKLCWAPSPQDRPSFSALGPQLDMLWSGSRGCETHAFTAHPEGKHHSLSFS
Protocol: (§1) The degree of inhibition of a panel of kinases is determined using the in vitro HotSpot kinase assay (purified enzymes, ^33P-ATP, an appropriate substrate and 1 uM ATP).

Btk = Btk (Homo sapiens, UniProt Q06187); test: Btk kinase activity, TR-FRET assay; settings: read-out: Btk (IC50)
Sequence of Btk (Q06187 whole entry): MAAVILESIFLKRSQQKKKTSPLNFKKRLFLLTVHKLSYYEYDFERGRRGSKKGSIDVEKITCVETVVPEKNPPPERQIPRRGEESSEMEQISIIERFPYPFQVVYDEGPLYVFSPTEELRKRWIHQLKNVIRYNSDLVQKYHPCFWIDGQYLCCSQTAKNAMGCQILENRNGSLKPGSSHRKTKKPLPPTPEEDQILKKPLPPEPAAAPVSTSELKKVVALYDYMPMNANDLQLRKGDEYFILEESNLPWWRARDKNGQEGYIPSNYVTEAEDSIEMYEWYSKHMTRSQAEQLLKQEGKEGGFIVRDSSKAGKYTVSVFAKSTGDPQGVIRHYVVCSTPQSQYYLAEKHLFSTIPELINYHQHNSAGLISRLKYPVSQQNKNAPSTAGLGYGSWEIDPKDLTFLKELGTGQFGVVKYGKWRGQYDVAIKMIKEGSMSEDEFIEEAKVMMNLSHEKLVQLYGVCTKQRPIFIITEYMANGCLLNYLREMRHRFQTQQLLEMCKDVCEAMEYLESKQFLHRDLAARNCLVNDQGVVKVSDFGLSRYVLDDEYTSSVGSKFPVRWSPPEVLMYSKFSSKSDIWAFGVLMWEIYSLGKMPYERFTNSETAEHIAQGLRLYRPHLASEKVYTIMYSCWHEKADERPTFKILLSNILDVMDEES
How it was run: (§2)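 Enzyme (Btk 0.5 nM; Lck 6 nM) reacted 1 h with inhibitor, ATP at Km and biotin-peptide substrate in pH 7.4 buffer, 10% DMSO. Phosphopeptide detected by Eu-p-Tyr100 antibody plus streptavidin-APC (665/615 nm). IC50 calculated from fitted Ki(app) via ATP/Km correction plus half total enzyme.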

Lck = Lck (Homo sapiens, UniProt P06239); test: Lck kinase activity, TR-FRET assay; settings: read-out: LCK (IC50)
Sequence of Lck (P06239 whole entry, species assumed): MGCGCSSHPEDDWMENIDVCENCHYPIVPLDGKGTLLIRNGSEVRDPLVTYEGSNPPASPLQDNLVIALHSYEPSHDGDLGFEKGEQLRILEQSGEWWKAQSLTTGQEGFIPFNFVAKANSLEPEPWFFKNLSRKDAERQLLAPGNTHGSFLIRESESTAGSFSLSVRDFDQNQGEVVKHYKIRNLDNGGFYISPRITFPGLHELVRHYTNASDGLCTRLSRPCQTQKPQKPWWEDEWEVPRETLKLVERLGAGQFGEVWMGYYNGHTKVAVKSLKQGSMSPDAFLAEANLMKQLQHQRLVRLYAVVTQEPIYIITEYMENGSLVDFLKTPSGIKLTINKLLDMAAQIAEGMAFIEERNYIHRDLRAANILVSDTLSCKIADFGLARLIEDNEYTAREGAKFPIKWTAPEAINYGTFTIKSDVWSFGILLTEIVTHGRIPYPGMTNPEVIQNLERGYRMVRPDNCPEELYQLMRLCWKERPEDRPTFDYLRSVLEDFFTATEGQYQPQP
How it was run: as §2

EGFR = EGFR (Homo sapiens, UniProt P00533); test: Inhibition of a panel of kinases, in vitro HotSpot kinase assay: EGFR
Sequence of EGFR (P00533 25-1210): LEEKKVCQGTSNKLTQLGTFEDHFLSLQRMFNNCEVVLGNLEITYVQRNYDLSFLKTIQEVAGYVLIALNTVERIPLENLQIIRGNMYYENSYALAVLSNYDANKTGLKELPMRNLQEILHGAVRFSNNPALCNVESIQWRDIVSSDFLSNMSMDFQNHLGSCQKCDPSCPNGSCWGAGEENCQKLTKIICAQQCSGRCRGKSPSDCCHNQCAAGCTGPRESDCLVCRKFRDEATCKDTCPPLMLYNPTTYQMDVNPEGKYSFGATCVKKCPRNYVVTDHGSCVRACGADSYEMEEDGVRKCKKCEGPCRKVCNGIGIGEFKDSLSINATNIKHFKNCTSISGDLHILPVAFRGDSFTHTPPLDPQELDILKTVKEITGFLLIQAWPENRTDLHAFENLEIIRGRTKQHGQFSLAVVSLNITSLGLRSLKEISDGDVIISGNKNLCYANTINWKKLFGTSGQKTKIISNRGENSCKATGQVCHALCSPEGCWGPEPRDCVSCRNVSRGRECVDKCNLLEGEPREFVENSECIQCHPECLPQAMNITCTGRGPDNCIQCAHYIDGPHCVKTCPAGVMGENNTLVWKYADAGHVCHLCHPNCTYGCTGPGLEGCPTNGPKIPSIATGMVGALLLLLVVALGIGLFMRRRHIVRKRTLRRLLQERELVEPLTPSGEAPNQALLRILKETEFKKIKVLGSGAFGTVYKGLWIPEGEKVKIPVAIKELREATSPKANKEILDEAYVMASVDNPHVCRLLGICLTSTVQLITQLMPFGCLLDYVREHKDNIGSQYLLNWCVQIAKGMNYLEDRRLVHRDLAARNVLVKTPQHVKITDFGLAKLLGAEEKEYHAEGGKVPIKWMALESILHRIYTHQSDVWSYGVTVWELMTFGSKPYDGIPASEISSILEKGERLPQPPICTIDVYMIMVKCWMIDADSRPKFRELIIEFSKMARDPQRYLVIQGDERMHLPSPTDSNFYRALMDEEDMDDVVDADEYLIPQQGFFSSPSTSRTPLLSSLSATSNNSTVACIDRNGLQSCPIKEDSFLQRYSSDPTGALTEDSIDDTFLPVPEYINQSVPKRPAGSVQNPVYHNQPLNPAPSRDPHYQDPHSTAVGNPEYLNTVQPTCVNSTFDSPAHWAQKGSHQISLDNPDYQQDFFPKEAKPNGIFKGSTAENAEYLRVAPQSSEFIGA
Protocol: as §1

Row | IC50 (JAK3) | IC50 (Btk) | IC50 (Lck) | IC50 (EGFR) | SMILES
1 | > 10000 nM | < 100 nM |  |  | Cc1ccnc(NC(=O)c2ccc(Oc3ccnc4[nH]nc(N[C@@H]5CCCN(C(=O)C6(C)COC6)C5)c34)cc2)c1 [compound 86, 4-[(3-{[(3R)-1-(3-methyloxetane-3-carbonyl)piperidin-3-yl]amino}-1H-pyrazolo[3,4-b]pyridin-4-yl)oxy]-N-(4-methylpyridin-2-yl)benzamide]
2 | > 10000 nM | < 100 nM | 1000 to 10000 nM |  | Cc1ccnc(NC(=O)c2ccc(Oc3ccnc4[nH]nc(N[C@@H]5CCCN(C(=O)c6ccc(F)cc6)C5)c34)cc2)c1 [compound 243, (R)-4-(3-(1-(4-fluorobenzoyl)piperidin-3-ylamino)-1H-pyrazolo[3,4-b]pyridin-4-yloxy)-N-(4-methylpyridin-2-yl)benzamide]
3 | > 10000 nM | 100 to 1000 nM | 1000 to 10000 nM |  | CC(=O)N1CCC[C@@H](Nc2n[nH]c3nccc(Nc4cccc(C(=O)Nc5ccc(C(C)C)c(C)c5)c4)c23)C1 [compound 131, 3-[(3-{[(3R)-1-acetylpiperidin-3-yl]amino}-1H-pyrazolo[3,4-b]pyridin-4-yl)amino]-N-[3-methyl-4-(propan-2-yl)phenyl]benzamide]
4 | > 10000 nM | < 100 nM | 1000 to 10000 nM |  | Cc1ccnc(NC(=O)c2ccc(Oc3ccnc4[nH]nc(N[C@@H]5CCCN(C(=O)c6ccccc6F)C5)c34)cc2)c1 [compound 248, (R)-4-(3-(1-(2-fluorobenzoyl)piperidin-3-ylamino)-1H-pyrazolo[3,4-b]pyridin-4-yloxy)-N-(4-methylpyridin-2-yl)benzamide]
5 | > 10000 nM | < 100 nM | 1000 to 10000 nM |  | COc1ccc(C(=O)N2CCC[C@@H](Nc3n[nH]c4nccc(Oc5ccc(C(=O)Nc6cc(C)ccn6)cc5)c34)C2)cc1 [compound 246, (R)-4-(3-(1-(4-methoxybenzoyl)piperidin-3-ylamino)-1H-pyrazolo[3,4-b]pyridin-4-yloxy)-N-(4-methylpyridin-2-yl)benzamide]
6 | 1000 to 10000 nM |  |  |  | CCC(=O)N1CC[C@@H](Nc2n[nH]c3nccc(Oc4ccc(C(=O)Nc5ncc(C)s5)cc4)c23)C1 [compound 72, N-(5-methyl-1,3-thiazol-2-yl)-4-[(3-{[(3R)-1-propanoylpyrrolidin-3-yl]amino}-1H-pyrazolo[3,4-b]pyridin-4-yl)oxy]benzamide]
7 | < 100 nM | < 100 nM | 1000 to 10000 nM |  | C=CC(=O)N1CCC[C@@H](Nc2n[nH]c3nccc(Nc4cccc(C(=O)Nc5ccc(C(C)C)c(C)c5)c4)c23)C1 [compound 129, N-[3-methyl-4-(propan-2-yl)phenyl]-3-[(3-{[(3R)-1-(prop-2-enoyl)piperidin-3-yl]amino}-1H-pyrazolo[3,4-b]pyridin-4-yl)amino]benzamide]
8 |  | 100 to 1000 nM | > 10000 nM | > 10000 nM | CN(C)C/C=C/C(=O)N1CC[C@@H](Nc2n[nH]c3nccc(Oc4ccn(Cc5ccccc5)c(=O)c4)c23)C1 [compound 15, 1-benzyl-4-[(3-{[(3R)-1-[(2E)-4-(dimethylamino)but-2-enoyl]pyrrolidin-3-yl]amino}-1H-pyrazolo[3,4-b]pyridin-4-yl)oxy]-1,2-dihydropyridin-2-one]
9 |  | < 100 nM | < 100 nM | < 100 nM | c1ccc(Oc2ccc(Oc3ccnc4[nH]nc(NC5CCOCC5)c34)cc2)cc1 [compound 47]
10 |  | 100 to 1000 nM | > 10000 nM | > 10000 nM | CN(C/C=C/C(=O)N1CC[C@@H](Nc2n[nH]c3nccc(Oc4ccc(C(=O)Nc5ncc[nH]5)cc4)c23)C1)C1CC1 [compound 67]
11 |  | < 100 nM | 100 to 1000 nM | < 100 nM | CCNC(=O)N1CCC[C@@H](Nc2n[nH]c3nccc(Oc4ccc(C(=O)Nc5cc(C#N)ccn5)cc4)c23)C1 [compound 79, (3R)-3-[(4-{4-[(4-cyanopyridin-2-yl)carbamoyl]phenoxy}-1H-pyrazolo[3,4-b]pyridin-3-yl)amino]-N-ethylpiperidine-1-carboxamide]
12 |  | < 100 nM | 100 to 1000 nM | 1000 to 10000 nM | N#Cc1ccnc(NC(=O)c2ccc(Oc3ccnc4[nH]nc(NC5CCOCC5)c34)cc2)c1 [compound 77, N-(4-cyanopyridin-2-yl)-4-({3-[(oxan-4-yl)amino]-1H-pyrazolo[3,4-b]pyridin-4-yl}oxy)benzamide]
13 | > 10000 nM | < 100 nM | 100 to 1000 nM |  | Cc1ccnc(NC(=O)c2ccc(Oc3ccnc4[nH]nc(N[C@@H]5CCCN(C(=O)c6ncco6)C5)c34)cc2)c1 [compound 240, (R)—N-(4-methylpyridin-2-yl)-4-(3-(1-(oxazole-2-carbonyl)piperidin-3-ylamino)-1H-pyrazolo[3,4-b]pyridin-4-yloxy)benzamide]
14 | > 10000 nM | < 100 nM | 1000 to 10000 nM |  | Cc1ccnc(NC(=O)c2ccc(Oc3ccnc4[nH]nc(N[C@@H]5CCCN(C(=O)c6ccc(Cl)cc6)C5)c34)cc2)c1 [compound 244, (R)-4-(3-(1-(4-chlorobenzoyl)piperidin-3-ylamino)-1H-pyrazolo[3,4-b]pyridin-4-yloxy)-N-(4-methylpyridin-2-yl)benzamide]
15 |  | 100 to 1000 nM | > 10000 nM | > 10000 nM | CN(C/C=C/C(=O)N1CC[C@@H](Nc2n[nH]c3nccc(Oc4ccc(C(=O)Nc5ncccn5)cc4)c23)C1)C1CC1 [compound 63]
16 |  | < 100 nM | 100 to 1000 nM | 100 to 1000 nM | CN(C(=O)/C=C/CN(C)C1CC1)c1cccc(Nc2n[nH]c3nccc(Oc4ccc(Oc5ccccc5)cc4)c23)c1 [compound 38]
17 |  | < 100 nM | 100 to 1000 nM | 100 to 1000 nM | CO[C@H]1CC[C@@H](Nc2n[nH]c3nccc(Oc4ccc(C(=O)Nc5cc(C#N)ccn5)cc4)c23)CC1 [compound 85, N-(4-cyanopyridin-2-yl)-4-[(3-{[(1S,4S)-4-methoxycyclohexyl]amino}-1H-pyrazolo[3,4-b]pyridin-4-yl)oxy]benzamide]
18 |  | < 100 nM | 1000 to 10000 nM | > 10000 nM | COc1ccnc(NC(=O)c2ccc(Oc3ccnc4[nH]nc(N[C@@H]5CCN(C(=O)/C=C/CN(C)C6CC6)C5)c34)cc2)c1 [compound 58]
19 |  | < 100 nM | < 100 nM | 100 to 1000 nM | CC(=O)N1CC[C@@H](Nc2n[nH]c3nccc(Oc4ccc(Oc5ccccc5)cc4)c23)C1 [compound 46]
20 |  | < 100 nM | 1000 to 10000 nM | > 10000 nM | Cc1ccnc(NC(=O)c2ccc(Oc3ccnc4[nH]nc(N[C@@H]5CCCN(C(=O)C6(C)CCC6)C5)c34)cc2)c1 [compound 88, 4-[(3-{[(3R)-1-(1-methylcyclobutanecarbonyl)piperidin-3-yl]amino}-1H-pyrazolo[3,4-b]pyridin-4-yl)oxy]-N-(4-methylpyridin-2-yl)benzamide]
21 |  | 100 to 1000 nM | > 10000 nM | > 10000 nM | CCNC(=O)N1CCC[C@@H](Nc2n[nH]c3nccc(Oc4ccc(-c5nc6cccc(C)c6o5)cc4)c23)C1 [compound 182]
22 |  | 100 to 1000 nM | 100 to 1000 nM | < 100 nM | CCC(=O)N1CCC[C@@H](Nc2n[nH]c3ncnc(Oc4ccc(Oc5ccccc5)cc4)c23)C1 [compound 51]
23 |  | 100 to 1000 nM | 1000 to 10000 nM | 1000 to 10000 nM | CN(C)C/C=C/C(=O)N1CC[C@@H](Nc2n[nH]c3nccc(Oc4ccc(-c5ncco5)c(Cl)c4)c23)C1 [compound 16, (2E)-1-[(3R)-3-({4-[3-chloro-4-(1,3-oxazol-2-yl)phenoxy]-1H-pyrazolo[3,4-b]pyridin-3-yl}amino)pyrrolidin-1-yl]-4-(dimethylamino)but-2-en-1-one]
24 |  | < 100 nM | 100 to 1000 nM | 1000 to 10000 nM | N#Cc1ccnc(NC(=O)c2ccc(Oc3ccnc4[nH]nc(N[C@@H]5CCCN(C(=O)C6CC6)C5)c34)cc2)c1 [compound 81, N-(4-cyanopyridin-2-yl)-4-[(3-{[(3R)-1-cyclopropanecarbonylpiperidin-3-yl]amino}-1H-pyrazolo[3,4-b]pyridin-4-yl)oxy]benzamide]
